According to patent US8673881B2, “Compositions and methods for the treatment of inflammation” (A.T. Resolve Sarl, priority 2009, dated 2014):

Experiments:
[1] = Ocular PK (distribution) study in Dutch-belted rabbits, topical ocular dosing, compound 1003 measured by LC/MS/MS; format: in vivo; settings: topical ocular administration of compounds 1001 and 1002 to rabbits, compared with each other
Protocol: The ocular distribution of compound 1001,
[drawing 220] in the ocular tissues of Dutch-belted rabbits when administered topically to the surface of the eye was evaluated.
Healthy, young adult Dutch-belted rabbits (male/female; at least 1.5 kg) were acclimated for at least 7 days prior to initiation of the study. Prior to the initiation of the study, the eyes of the rabbits were examined to ensure that the eyes were free of any defects that may affect the integrity of the study. Examinations were performed by a qualified observer.
Animals were dosed via the topical ocular route using a pipettor system which delivered a 30 μL dose to each eye. Each animal was dosed at T=0. The right eye received a dose concentration of 300 μg/mL of compound 1001 and the left eye received a dose concentration of 300 μg/mL of compound 1002. At the intervals noted in Table 3, the animals were sacrificed. […]
Spiking solutions for standards were prepared by diluting compound 1003 as its sodium salt (e.g., M is Na) (dissolved in ethanol) in ethanol spanning the concentration range of 0.100 to 4000 ng/mL of compound 1003. Two standard curves were extracted and subsequently analyzed one before and one after the samples. […]
Compound 1003 in the homogenized/extracted/dried/reconstituted samples was analyzed by LC/MS/MS using D4-PGE2 as the internal standard. […]

[2] = Chemical stability study, HPLC purity (% area) over time; format: physicochemical; settings: for % Area Compound / % Area Impurity: 500 μg/mL ophthalmic formulation, pH 5.5, 5° C.; for time the reference solution was stable: reference solution in water/absolute ethanol (90/10 v/v), stored at 5° C.±3° C., protected from light
Protocol: The chemical stability of compounds 1001 and 1002 was measured via HPLC analysis of the purity of these compounds over time. The purity assay of active components using percent area (% area) and impurities reported as percent area (% area) were measured by HPLC using the following conditions:
A sample diluent was prepared with water/absolute ethanol (90/10 v/v).
Reference solutions of compounds 1001 and 1002 were prepared by weighing approximately 10 mg (±2 mg) of a 1 mg/mL stock solution of compound 1001 or 1002 into a 1 mL amber volumetric flask. Approximately 0.5 mL of sample diluent was added and the solution swirled to mix. The sample was diluted to volume with sample diluent and mixed well. The reference solution for compound 1001 was stable for up to 7 days stored at 5° C.±3° C., protected from light. The reference solution for compound 1002 was stable for up to 3 days stored at 5° C.±3° C., protected from light.
Ophthalmic formulations of compounds 1001 (0.994 g of a 52 mg/mL solution in propylene glycol) or compound 1002 (1.034 g of a 50 mg/mL solution in propylene glycol) were prepared at 500 μg/mL dose strength in potassium phosphate buffer (25 mM, pH 5.5, 0.34 g) with 0.2 M sodium hydroxide solution (q.s.), sodium chloride (0.327 g), polysorbate 80 (0.5% w/v), and purified water (q.s. to 100). Sample solutions of compounds 1001 and 1002 were each prepared by accurately weighing approximately 20 mg of the 500 μg/mL compound formulation into a 1 mL amber volumetric flask. Approximately 0.5 mL of sample diluent was added and the solution gently swirled to mix. The solution was diluted to volume with sample diluent and mixed well.
The following equation was used to calculate the compound 1001 or compound 1002 purity assay (% area) in each sample: Analogue Content(% area)=(Area of analog/Total area of all peaks≧0.10% area)×100.
Impurities≧0.10% area were integrated and reported as % area to 2 decimal places.
Tables 5 and 6 show the results of the chemical stability study of compounds 1001 and 1002, respectively, over the course of 8 weeks at 5° C.

[3] = test system: signs and symptoms of dry eye; experiment: Study of compound 1001 in dry eye: multi-center, double-masked, randomized, placebo-controlled; format: in vivo, human patients; settings: for change in ocular discomfort as compared to vehicle (ORA Ocular Discomfort Scale), improvement: dose C (275.6 μg/mL)
Description: The objective of this study was to compare the efficacy of compound 1001 to placebo (vehicle minus active) for the treatment of the signs and symptoms of dry eye, in a multi-center, double-masked, randomized, placebo-controlled study in which 100 human patients were equally randomized into one of three active treatment groups or placebo and all treatment groups were exposed to identical humidity, temperature, and wind conditions which exacerbated the symptoms of dry eye. During a 14 day study run-in period prior to randomization (e.g., day −14 to day 0), all patients received placebo bilaterally two times per day (BID). At the time of treatment randomization (e.g., day 0), patients were exposed to 90 minutes of identical humidity, temperature, and wind conditions which exacerbated the symptoms of dry eye after which patients were stratified based on the following criterion: Central corneal staining post-exposure<2.5 or >3.0. Patients eligible to be randomized received one of the following treatments to be administered as approximately a 30 μL drop to both eyes BID: 1) Compound 1001 at dose A (26.4 μg/mL) Ophthalmic Solution; 2) Compound 1001 at dose B (87.8 μg/mL) Ophthalmic Solution; 3) Compound 1001 at dose C (275.6 μg/mL) Ophthalmic Solution; 4) Placebo Ophthalmic Solution (Vehicle minus active). Brief Summary of Visit Schedule. […] The primary endpoint of mean ocular discomfort in the conditions for exacerbating the symptoms of dry eye using the ORA Ocular Discomfort Scale (during the 90 minute exposure) was summarized statistically (m, mean, standard deviation, median, min and max), and analyzed with 1-sided t-tests comparing the best dose to placebo with a p-value<0.025 considered significant. […] Ocular discomfort during this exposure period was measured using the ORA Ocular Discomfort Scale with the ocular discomfort score being the average of all time points during exposure. Ocular discomfort was measured again at visit 5 (e.g., day 29). […] Symptoms of grittiness, dryness were measured on environmental day 28 on a visual analog scale of 0-5.

Row | SMILES | levels of compound 1003 observed in the aqueous humor, the vitreous and the cornea (FIG. 1) [1] | % Area Compound ([2]; 2 weeks) | % Area Impurity ([2]; 2 weeks) | % Area Compound ([2]; 4 weeks) | % Area Impurity ([2]; 4 weeks) | chemical stability compared (percent purity over time) ([2]; 8 weeks at 5° C., compound 1001 versus compound 1002) | % Area Compound ([2]; 8 weeks) | % Area Impurity ([2]; 8 weeks) | % Area Compound ([2]; Initial) | % Area Impurity ([2]; Initial) | time the reference solution was stable [2] | dryness, visual analog scale of 0-5, change as compared to vehicle ([3]; day 28, dose C (275.6 μg/mL) topically, FIG. 4) | change in ocular discomfort as compared to vehicle (ORA Ocular Discomfort Scale), improvement ([3]; day 28, approx. 30 μL drop to both eyes BID, FIG. 2) | change in ocular discomfort as compared to vehicle (ORA Ocular Discomfort Scale), improvement ([3]; day 29, 24 hours after last treatment, FIG. 3) | % Area Compound ([2]; 1 week) | % Area Impurity ([2]; 1 week)
1 | C#CC[C@@H](O)/C=C/C=C/C#C[C@@H](O)CCCC(=O)OC(C)C [Compound 1001] | comparable levels | 99.03 % Area | 0.97 % Area | 99.39 % Area | 0.61 % Area | better chemical stability | 99.31 % Area | 0.69 % Area | 99.55 % Area | 0.45 % Area | up to 7 days | significant change | ~27% | ~36% | – | –
2 | C#CC[C@@H](O)/C=C/C=C/C#C[C@@H](O)CCCC(=O)OC [Compound 1002] | comparable levels | 97.46 % Area | 2.55 % Area | 96.54 % Area | 3.46 % Area | – | 94.95 % Area | 5.05 % Area | 98.29 % Area | 1.71 % Area | up to 3 days | – | – | – | 97.58 % Area | 2.43 % Area
